Data set [1] has as its target T1, recombinant human EP4 receptor membrane protein (Homo sapiens, UniProt P35408).
T1 construct: expressed in transfected cells; host or cells: membranes of 293 cells overexpressing human EP4 receptor
Put plainly: Radioligand binding assay for EP4 receptor ([3H]-PGE2). To be noted: [3H]-PGE2 1.5 nM; membrane protein 20 μg/well. As for the experimental part: The compounds to be tested and PGE2 were formulated as 10 mM stocks in a DMSO solvent, and then 8 concentration points of 4× working solution were serially diluted using a buffer (50 mM HBSS, 0.1% BSA, 500 mM NaCl). […] Unifilter-96 GF/C filter plate (Perkin Elmer) was soaked with 0.5% BSA, 50 μL per well, for at least 30 min at room temperature. After binding was complete, the reaction mixture was harvested through a GF/C plate using a Perkin Elmer Filtermate Harvester, followed by washing the filter plate and drying the filter plate for 1 hour at 50° C. After drying, the bottom of the filter plate wells was sealed using a Perkin Elmer Unifilter-96 sealing tape, and 50 μL of MicroScint™-20 cocktail (Perkin Elmer) was added to seal the top of the filter plate. The ^3H counts captured on the filter were read using a Perkin Elmer MicroBeta2 Reader.
The IC50 and Ki values of the compounds determined by the radioligand binding assay for EP4 receptor were calculated based on the inhibition rate of the different concentrations of the compounds.

Data set [2] is described as follows: Mouse pharmacokinetic assay. It is filed as in vivo, male ICR mice. To be noted: male, ICR, plasma. The method, then:
(§1) In a mouse pharmacokinetic assay, male ICR mice (20 g to 25 g) were selected and fasted overnight. Three mice were selected and intragastrically administered with 5 mg/kg of the corresponding compound. The blood of the mice was collected before the administration and at 15 min, 30 min, 1 h, 2 h, 4 h, 8 h, 24 h after the administration. Another 3 mice were intravenously administered with 1 mg/kg of the corresponding compound, and the blood thereof was collected before the administration and at 15 min, 30 min, 1 h, 2 h, 4 h, 8 h, 24 h after the administration. The blood samples were centrifuged at 6800 g at 2° C. to 8° C. for 6 minutes, and plasma was collected and stored at −80° C. The plasma was taken at respective time point, mixed with 3-5 times the amount of acetonitrile containing internal standard, vortexed for 1 minute, centrifuged at 4° C. for 10 minutes at 13000 rpm, supernatant was added 3 times the amount of water, and the appropriate mixture was taken for LC-MS/MS analysis. The primary pharmacokinetic parameters were analyzed with a WinNonlin 7.0 software, with non-compartmental model.

For data set [3], the target named is T2, human EP4 receptor (Homo sapiens, UniProt P35408). Put plainly: Assay of calcium current inhibition on EP4 receptor (FLIPR, 293 cells). It is filed as cell-based. More on the design: expressed in transfected cells; host or cells: 293 cells. To be noted: 293 cells overexpressing human EP4; PGE2 at EC80; FLIPR. The method, then: The cells were rapidly thawed in a 37° C. water bath, centrifuged, resuspended, and counted. The cell suspensions were seeded at 20 μL/well in two 384-well plates (20,000 cells/well) and placed in an incubator (a 37° C., 5% CO2) overnight. Preparation of a 2× Fluo-4 Direct™ (Invitrogen, Cat #F10471) loading buffer: 77 mg of probenecid was added to 1 mL of a FLIPR buffer, with a concentration of 250 mM. 10 mL of FLIPR buffer and 0.2 mL of probenecid (250 mM) were added to each tube of Fluo-4 Direct™ crystals (F10471).
T2 sequence (P35408 whole entry): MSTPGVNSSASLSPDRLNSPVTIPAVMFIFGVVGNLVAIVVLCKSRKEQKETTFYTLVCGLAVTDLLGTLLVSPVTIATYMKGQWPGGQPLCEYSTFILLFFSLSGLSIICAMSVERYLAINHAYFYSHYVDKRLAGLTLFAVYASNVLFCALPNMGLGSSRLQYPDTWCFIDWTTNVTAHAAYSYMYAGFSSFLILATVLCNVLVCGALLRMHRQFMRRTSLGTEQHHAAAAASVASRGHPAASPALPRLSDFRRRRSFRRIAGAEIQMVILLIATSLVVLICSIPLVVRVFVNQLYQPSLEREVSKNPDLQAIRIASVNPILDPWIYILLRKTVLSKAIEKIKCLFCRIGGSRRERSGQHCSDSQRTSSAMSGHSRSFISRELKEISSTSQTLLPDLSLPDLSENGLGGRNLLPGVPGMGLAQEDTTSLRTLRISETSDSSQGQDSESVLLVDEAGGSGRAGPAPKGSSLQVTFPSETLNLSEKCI
One of the cell plates was taken out of the incubator and the medium was removed. 20 μL of an assay buffer and 2× Fluo-4 Direct™ non-wash loading buffer were added to the 384-well cell culture plate to a final volume of 40 μL, and then the culture plate was incubated in an incubator (a 37° C., 5% CO2) for 50 minutes, and then at room temperature for 10 minutes, and then the plate was placed in the FLIPR. 10 μL of the buffer was transferred to the cell plate and the fluorescence signal was read. The agonist PGE2 was formulated as a 10 mM stock in a DMSO solvent and 10 concentration points of the 6× working solution were serially diluted using the buffer. 10 μL of the agonist PGE2 was transferred to the cell plate, the fluorescence signal was read to calculate EC80 value.
The agonist PGE2 was prepared at 6× EC80 concentration and the compound to be tested was formulated as a 10 mM stock solution in the DMSO solvent and 10 concentration points of the 6× compound working solution was serially diluted using the buffer.
Another cell plate was taken to remove media and 20 μL of the assay buffer and 2× Fluo-4 Direct™ non-wash loading buffer were added; the cell plate was incubated in a 37° C., 5% CO2 incubator for 50 minutes and room temperature for 10 minutes and then placed in the FLIPR. 10 μL of the compound working solution, DMSO, and the EP4 full antagonist were transferred to the cell plate and the fluorescence signal was read. […] Inhibition (%)=100−(test group−EP4 full antagonist group)/(DMSO group−EP4 full antagonist group)*100
Compound's IC50 value of EP4 calcium current inhibition was calculated based on the inhibition rate at different concentrations of the compound.

In data set [4] the target is T2, human EP4 receptor. Briefly: Assay for EP4 antagonistic effect (cAMP, PGE2-stimulated CHO stable cell line).
Procedure: After trypsinization, cells were resuspended in a buffer (1×HBSS, 0.1% BSA, 20 mM HEPES, and 500 μM IBMX) and 8000 cells were seeded per well in 384-well plates in a seeding volume of 15 μL. A working solution the compound with a 8× concentration was prepared with an experimental buffer, and then 2.5 μL of the working solution of the compound with 8× concentration was added to the 384-well plate, respectively, and incubated at 37° C. for 30 min. An agonist PGE2 working solution with 8× concentration of (4 nM) was prepared with the experimental buffer and 2.5 μL per well was added to the 384-well plate (the final PGE2 concentration was 0.5 nM) and incubated at 37° C. for 30 min. After the reaction was completed, the amount of cAMP in the cells was quantified according to the method in the instructions of the cAMP test kit (Perkin Elmer, Cat #TRF0263). The antagonistic effects (IC50 value) were calculated for the test compounds.
The nature of data set [5]: Canine pharmacokinetic assay. It is filed as in vivo, male Beagle dogs. To be noted: male, Beagle, dog, plasma, canine. As for the experimental part:
as §1
In a canine pharmacokinetic assay, male Beagle dogs (8 kg to 10 Kg) were selected and fasted overnight. Three Beagle dogs were taken and intragastrically administered with 3 mg/kg of the corresponding compound. Another 3 Beagle dogs were intravenously administered with 1 mg/kg of the corresponding compound. The following operations were the same as the mouse pharmacokinetic assay.

Data set [6] in a line: Rat pharmacokinetic assay. It counts as in vivo, male SD rats. To be noted: male, SD, plasma, rat. As for the experimental part:
as §1
In a rat pharmacokinetic assay, male SD rats (180 g to 240 g) were selected and fasted overnight. Three rats were intragastrically administered with 5 mg/kg of the corresponding compound. Another 3 rats were intravenously administered with 1 mg/kg of the corresponding compound. The following operations were the same as the mouse pharmacokinetic assay.

For data set [7], the system named is CT-26 murine colon cancer tumor model. Put plainly: Anti-tumor effect in CT-26 murine colon cancer tumor model in combination with radiation therapy. It counts as in vivo, mouse. To be noted: 150 mg/kg intragastric once daily in combination with radiotherapy (3Gry, once on day 1); day 23; tumor weight. As for the experimental part: In this assay, the anti-tumor effects of the control compound and the compounds prepared in Examples 1 to 43, in combination with radiation therapy, were tested in a CT-26 murine colon cancer tumor model.
After one week of adaptive feeding of mice, CT-26 cells in a log phase were resuspended in PBS, 5×10^5 CT-26 cells were inoculated subcutaneously at the right flank at 100 μL per mouse, and tumor growth was observed regularly. When the tumor grew to an average volume of 60 to 80 mm^3, the mice carrying the tumor were randomly divided into 5 groups based on the tumor volume size, each group containing 10 mice of 10. These group were a group of Control compound (150 mg/kg) in combination with radiotherapy (3Gry), a group of Compound I-2 (150 mg/kg) in combination with radiotherapy, a group of Compound I-5 (150 mg/kg) in combination with radiotherapy, a group of radiotherapy (3Gry) alone, and a group of vehicle control. The mice were intragastrically administered with the corresponding compound once daily, for 23 days in total; radiation therapy was performed for one-time on the first day of the administration. Tumor volumes and mouse body weights were measured twice a week, and tumor weights were weighed at the end of the experiment. Efficacy evaluations were performed based on relative tumor inhibition (TGI), safety evaluations were performed based on changes in animal body weight and death. Tumor volume and relative tumor inhibition were calculated as follows:
Tumor volume (TV)=½×a×b^2, where a and b are the length and width of the tumor measurement, respectively.
Relative tumor inhibition rate TGI (%)=(TWc−TWt/TWc)×100%, where TWc is the mean tumor weight of the vehicle control group and TW is the mean tumor weight of the treatment group.

Where [8] appears, read: oral gavage administration 5 mg/kg.
The mark [9] stands for this setting: oral gavage administration 3 mg/kg.
The mark [10] stands for this setting: intravenous administration 1 mg/kg.
Setting [11] is: intravenous administration 1 mg/kg, read-out: Vz.

T1 sequence (P35408 whole entry): as above

In the case of `CCc1cccc(Oc2c(C(=O)N[C@@H](C)c3ccc(C(=O)O)cc3)c(C(F)F)nn2C)c1` [Compound I-1, (S)-4-(1-(3-(difluoromethyl)-5-(3-ethylphenoxy)-1-methyl-1H-pyrazole-4-carboxamido)ethyl)benzoic Acid], in data set [1], the IC50 was 16 nM and the inhibition constant (Ki) is 8.9 nM. Besides, in data set [2] (setting [8]), the AUC(0-t) was 2140 ng·h/mL, the Cmax was determined as 1110 ng/mL, the Tmax stood at 0.33 h and the half-life is 4.33 h. Further, the IC50 at human EP4 receptor [3] was determined as 15 nM. The compound further had a 50% inhibitory concentration (IC50) at human EP4 receptor [4] of 3.7 nM.
`C[C@H](NC(=O)c1c(C(F)F)nn(C)c1Oc1cccc(CC(F)(F)F)c1)c1ccc(C(=O)O)cc1` [Compound I-6, (S)-4-(1-(3-(difluoromethyl)-1-methyl-5-(3-(2,2,2-trifluoroethyl)phenoxy)-1H-pyrazole-4-carboxamido)ethyl)benzoic Acid]: in data set [1], the IC50 came out at 11 nM and the Ki stood at 5.8 nM. In data set [2] (setting [8]), the AUC(0-t) was determined as 4440 ng·h/mL, the concentration peaked (Cmax) at 1280 ng/mL, the Tmax came out at 0.42 h and the half-life is 7.22 h. Besides, on human EP4 receptor [3], the IC50 is 8 nM. Moreover, the IC50 on human EP4 receptor [4] turned out to be 8.2 nM.
`CSc1cccc(Oc2c(C(=O)N[C@@H](C)c3ccc(C(=O)O)cc3)c(C(F)F)nn2C)c1` [Compound I-30, (S)-4-(1-(3-(difluoromethyl)-1-methyl-5-(3-(methylthio)phenoxy)-1H-pyrazole-4-carboxamido)ethyl)benzoic Acid]: the IC50 was found to be 12 nM in data set [1], 15 nM at human EP4 receptor [3] and 12 nM on human EP4 receptor [4]. Besides, the Ki in data set [1] was 6.6 nM.
As to `C[C@H](NC(=O)c1c(C(F)F)nn(C)c1Sc1cccc(C(F)(F)F)c1)c1ccc(C(=O)O)cc1` [Compound I-35, (S)-4-(1-(3-(difluoromethyl)-1-methyl-5-((3-(trifluoromethyl)phenyl)thio)-1H-pyrazole-4-carboxamido)ethyl)benzoic Acid], in data set [1], the IC50 came to 28 nM and the Ki was 15 nM. In data set [2] (setting [8]), the exposure AUC(0-t) was 3060 ng·h/mL, the Cmax came to 1040 ng/mL, the Tmax came to 0.33 h and the half-life is 7.12 h. Moreover, the IC50 on human EP4 receptor [3] is 6 nM. The compound further registered an IC50 on human EP4 receptor [4] of 6.6 nM.
`C[C@H](NC(=O)c1c(C(F)F)nn(C)c1Oc1csc(C(F)(F)F)c1)c1ccc(C(=O)O)cc1` [Compound I-42, (S)-4-(1-(3-(difluoromethyl)-1-methyl-5-((5-(trifluoromethyl)thiophen-3-yl)oxy)-1H-pyrazole-4-carboxamido)ethyl)benzoic Acid]: in data set [1], the IC50 came out at 13 nM and the inhibitory constant (Ki) came to 7.3 nM. Also, in data set [2] (setting [8]), the AUC(0-t) was found to be 2440 ng·h/mL, the Cmax was 570 ng/mL, the Tmax amounted to 0.33 h and the half-life is 23.2 h. For the same compound, in data set [5] (setting [9]), the AUC(0-t) is 7190 ng·h/mL, the concentration peaked (Cmax) at 4850 ng/mL, the time to peak (Tmax) is 0.25 h and the half-life was 8.35 h. Further, the IC50 on human EP4 receptor [3] stood at 15 nM. On human EP4 receptor [4], the IC50 turned out to be 8.6 nM.
For `C[C@H](NC(=O)c1c(C(F)F)nn(C)c1Oc1cccc(C(F)(F)F)c1)c1ccc(C(=O)O)cc1` [Control Compound, reference compound], the AUC(0-t) is 974 ng·h/mL in data set [2] (setting [10]); 1770 ng·h/mL in data set [2] (setting [8]); 1420 ng·h/mL in data set [6] (setting [10]); 6850 ng·h/mL in data set [6] (setting [8]); 3730 ng·h/mL in data set [5] (setting [10]); 6800 ng·h/mL in data set [5] (setting [9]). Also, the values for the clearance in data set [2] (setting [10]), in data set [6] (setting [10]) and in data set [5] (setting [10]) were 14.7 mL/min/kg, 10.2 mL/min/kg and 4 mL/min/kg, respectively. The half-life was 6.64 h in data set [2] (setting [10]); 30.9 h in data set [2] (setting [8]); 10.9 h in data set [6] (setting [10]); 12.7 h in data set [6] (setting [8]); 9.36 h in data set [5] (setting [10]); 18.6 h in data set [5] (setting [9]). In addition, the results for the Vd in data set [2] (setting [11]), in data set [6] (setting [11]) and in data set [5] (setting [11]) were 8.38 L/kg, 9.55 L/kg and 3.21 L/kg, respectively. The results for the Cmax in data set [2] (setting [8]), in data set [6] (setting [8]) and in data set [5] (setting [9]) were 792 ng/mL, 1100 ng/mL and 1360 ng/mL, respectively. The Tmax worked out at 0.25 h in data set [2] (setting [8]), 0.5 h in data set [6] (setting [8]) and 1 h in data set [5] (setting [9]). In data set [7], the “relative tumor inhibition rate TGI (%)” value is listed as 54%.

For the origin of these results see patent publication US12643889B2, “Synthesis of novel EP4 antagonist and use in cancer and inflammation” (Wuhan Humanwell Innovative Drug Research And Development …, priority 2020, dated 2026).
